For data set [1], the target named is T1, first bromodomain (BrD1) of human BRD4 (Homo sapiens, UniProt O60885).
T1 construct: the first bromodomain (BrD1) of human BRD4; poly-His (cleaved yes); made in house
The data set is described as follows: Fluorescence anisotropy binding assay (competition with FITC-labeled MS417 probe). The conditions noted are these: FITC-MS417 probe 80 nM, PBS pH 7.4, 1 hour, 25° C., read-out: BRD4_1 IC50. In short, it runs like this:
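Competitive fluorescence anisotropy in PBS pH 7.4: 80 nM FITC-MS417 probe, 0.25 to 1 μM tag-cleaved BrD1, titrated unlabeled ligand, 1 hour at 25° C. IC50 values were fitted and converted to Ki using a corrected Cheng-Prusoff equation assuming one-site competition.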

A further data set addresses T2, BRD4_2 (Homo sapiens, UniProt O60885).
T2 construct: contains two tandem bromodomains (BrD1 and BrD2)
The data set is described as follows: Fluorescence anisotropy binding assay (competition with FITC-labeled MS417 probe), BRD4_2. The conditions noted are these: FITC-MS417 probe 80 nM, PBS pH 7.4, 1 hour, 25° C.

SMILES strings stand for the structures.

The compound `CC1=C(Nc2cc(NC(=O)C3CCCCC3)ccc2Cl)CCC1=O` [Example 05-39, N-(4-chloro-3-[(2-methyl-3-oxocyclopent-1-en-1-yl)amino]phenyl)-cyclohexanecarboxamide] showed a melting point of 240 to 242 °C. In addition, the IC50 in data set [1] was below 1000 nM. This compound also came in with an IC50 at BRD4_2 of 1000 to 10000 nM.
The corresponding values for `CC1=C(Nc2cc(NC(=O)c3cccc4ccccc34)ccc2Cl)CCC1=O` [Example 05-40, N-(4-chloro-3-[(2-methyl-3-oxocyclopent-1-en-1-yl)amino]phenyl)-naphthalene-1-carboxamide] are 243 to 245 °C, below 1000 nM and below 1000 nM.
Taken in the same sequence, the figures for `CC1=C(Nc2ccc(NC(=O)c3ccccc3C)cc2Cl)CCC1=O` [Example 05-41, N-(3-chloro-4-((2-methyl-3-oxocyclopent-1-en-1-yl)amino)phenyl)-2-methylbenzamide] were 280 to 283 °C, below 1000 nM and 1000 to 10000 nM.
Taken in the same sequence, the figures for `CC1=C(Nc2cccc(NC(=O)c3ccccc3C)c2Cl)CCC1=O` [Example 05-42, N-(2-chloro-3-((2-methyl-3-oxocyclopent-1-en-1-yl)amino)phenyl)-2-methylbenzamide] were 118 to 120 °C, below 1000 nM and 1000 to 10000 nM.
Take `COc1ccc(C(=O)Nc2ccc(Cl)c(NC3=C(C)C(=O)CCC3)c2)cc1` [Example 05-43, N-(4-chloro-3-((2-methyl-3-oxocyclohex-1-en-1-yl)amino)phenyl)-4-methoxybenzamide]: the melting point is 190 to 195 °C. Moreover, the IC50 in data set [1] is above 10000 nM. Also, at BRD4_2, the IC50 was above 10000 nM.
In the case of `CC1=C(Nc2cc(NC(=O)c3ccccc3C)ccc2Cl)CCCC1=O` [Example 05-44, N-(4-chloro-3-((2-methyl-3-oxocyclohex-1-en-1-yl)amino)phenyl)-2-methylbenzamide], the melting point lay in the range of 199 to 201 °C. In addition, in data set [1], the IC50 is below 1000 nM. The same compound showed an IC50 on BRD4_2 of 1000 to 10000 nM.
Taken in the same sequence, the figures for `CC1=C(Nc2cc(NC(=O)C3CCCCC3)ccc2Cl)CCCC1=O` [Example 05-45, N-(4-chloro-3-((2-methyl-3-oxocyclohex-1-en-1-yl)amino)phenyl)-cyclohexanecarboxamide] were 192 to 195 °C, below 1000 nM and 1000 to 10000 nM.
Taken in the same sequence, the figures for `CC1=C(Nc2cc(NC(=O)c3cccc4ccccc34)ccc2Cl)CCCC1=O` [Example 05-46, N-(4-chloro-3-((2-methyl-3-oxocyclohex-1-en-1-yl)amino)phenyl)-1-naphthamide] were 245 to 247 °C, below 1000 nM and 1000 to 10000 nM.
On to `CC1=C(Nc2ccc(NC(=O)c3cccc4ccccc34)cc2Cl)CCCC1=O` [Example 05-47, N-(3-chloro-4-((2-methyl-3-oxocyclohex-1-en-1-yl)amino)phenyl)-1-naphthamide], for which the melting point was in the range of 245 to 247 °C. The IC50 in data set [1] is below 1000 nM. On BRD4_2, the IC50 was 1000 to 10000 nM.
Consider `CC1=C(Nc2ccc(NC(=O)c3ccccc3C)cc2Cl)CCCC1=O` [Example 05-48, N-(3-chloro-4-((2-methyl-3-oxocyclohex-1-en-1-yl)amino)phenyl)-2-methylbenzamide], for which the melting point lay in the range of 234 to 236 °C. For the same compound, the IC50 in data set [1] was below 1000 nM. The compound further yielded an IC50 on BRD4_2 of 1000 to 10000 nM.
The corresponding values for `CC1=C(Nc2ccc(NC(=O)C3CCCCC3)cc2Cl)CCCC1=O` [Example 05-49, N-(3-chloro-4-((2-methyl-3-oxocyclohex-1-en-1-yl)amino)phenyl)-cyclohexanecarboxamide] are 248 to 250 °C, below 1000 nM and 1000 to 10000 nM.
The corresponding values for `CC1=C(Nc2cccc(NC(=O)C3CCCCC3)c2Cl)CCCC1=O` [Example 05-51, N-(2-chloro-3-((2-methyl-3-oxocyclohex-1-en-1-yl)amino)phenyl)-cyclohexanecarboxamide] are 205 to 208 °C, 1000 to 10000 nM and above 10000 nM.
The corresponding values for `CC1=C(Nc2cccc(NC(=O)c3cccc4ccccc34)c2Cl)CCCC1=O` [Example 05-52, N-(2-chloro-3-((2-methyl-3-oxocyclohex-1-en-1-yl)amino)phenyl)-1-naphthamide] are 178 to 180 °C, below 1000 nM and 1000 to 10000 nM.
`CC1=C(Nc2cc(NS(C)(=O)=O)ccc2Cl)CCC1=O` [Example 05-53, N-(4-chloro-3-((2-methyl-3-oxocyclopent-1-en-1-yl)amino)-phenyl)-methanesulfonamide] showed a melting point of 213 to 215 °C. The IC50 in data set [1] fell in the range of 1000 to 10000 nM. Besides, on BRD4_2, the IC50 lay in the range of 1000 to 10000 nM.
Take `CC1=C(Nc2cc(NS(=O)(=O)Cc3ccccc3)ccc2Cl)CCC1=O` [Example 05-54, N-(4-chloro-3-((2-methyl-3-oxocyclopent-1-en-1-yl)amino)phenyl)-1-phenylmethanesulfonamide]: the melting point lay in the range of 196 to 198 °C. Moreover, the IC50 in data set [1] is below 1000 nM. On BRD4_2, this compound showed an IC50 below 1000 nM.
In the case of `CC1=C(Nc2cc(NS(=O)(=O)C3CCCCC3)ccc2Cl)CCC1=O` [Example 05-55, N-(4-chloro-3-((2-methyl-3-oxocyclopent-1-en-1-yl)amino)phenyl)-cyclohexanesulfonamide], the melting point was 158 to 160 °C. Moreover, in data set [1], the IC50 is below 1000 nM. The same compound came in with an IC50 on BRD4_2 of 1000 to 10000 nM.
Taken in the same sequence, the figures for `CC1=C(Nc2cc(NS(=O)(=O)c3ccccc3F)ccc2Cl)CCC1=O` [Example 05-58, N-(4-chloro-3-((2-methyl-3-oxocyclopent-1-en-1-yl)amino)phenyl)-2-fluorobenzenesulfonamide] were 215 to 217 °C, below 1000 nM and below 1000 nM.
Taken in the same sequence, the figures for `CC1=C(Nc2cc(NS(=O)(=O)c3ccccc3C#N)ccc2Cl)CCC1=O` [Example 05-59, N-(4-chloro-3-((2-methyl-3-oxocyclopent-1-en-1-yl)amino)phenyl)-2-cyanobenzenesulfonamide] were 235 to 238 °C, below 1000 nM and below 1000 nM.
The corresponding values for `COc1ccccc1S(=O)(=O)Nc1ccc(Cl)c(NC2=C(C)C(=O)CC2)c1` [Example 05-60, N-(4-chloro-3-((2-methyl-3-oxocyclopent-1-en-1-yl)amino)phenyl)-2-methoxybenzenesulfonamide] are 198 to 200 °C, below 1000 nM and below 1000 nM.
The compound `CC1=C(Nc2cc(NS(=O)(=O)N3CCCCC3)ccc2Cl)CCC1=O` [Example 05-61, N-(4-chloro-3-((2-methyl-3-oxocyclopent-1-en-1-yl)amino)phenyl)-piperidine-1-sulfonamide] had a melting point of 78 to 80 °C. In addition, in data set [1], the IC50 was below 1000 nM. This compound came in with an IC50 on BRD4_2 below 1000 nM.
As to `CC1=C(Nc2cc(NS(=O)(=O)N3CCOCC3)ccc2Cl)CCC1=O` [Example 05-62, N-(4-chloro-3-((2-methyl-3-oxocyclopent-1-en-1-yl)amino)phenyl)-morpholine-4-sulfonamide], the melting point fell in the range of 60 to 67 °C. Besides, the IC50 in data set [1] was below 1000 nM. This compound came in with an IC50 at BRD4_2 of 1000 to 10000 nM.
With `CC1=C(Nc2ccc(NS(=O)(=O)c3ccccc3C)cc2Cl)CCC1=O` [Example 05-63, N-(3-chloro-4-((2-methyl-3-oxocyclopent-1-en-1-yl)amino)phenyl)-2-methylbenzenesulfonamide], the melting point was in the range of 215 to 218 °C. Moreover, the IC50 in data set [1] is below 1000 nM. Further, the IC50 at BRD4_2 is 1000 to 10000 nM.
Taken in the same sequence, the figures for `CC1=C(Nc2ccc(NS(=O)(=O)C3CCCCC3)cc2Cl)CCC1=O` [Example 05-64, N-(3-chloro-4-((2-methyl-3-oxocyclopent-1-en-1-yl)amino)phenyl)-cyclohexanesulfonamide] were 210 to 213 °C, below 1000 nM and 1000 to 10000 nM.
For `CC1=C(Nc2cccc(NS(=O)(=O)c3ccccc3C)c2Cl)CCC1=O` [Example 05-65, N-(2-chloro-3-((2-methyl-3-oxocyclopent-1-en-1-yl)amino)phenyl)-2-methylbenzenesulfonamide], the melting point lay within 75 to 77 °C. In data set [1], the IC50 is below 1000 nM. For the same compound, the IC50 on BRD4_2 was 1000 to 10000 nM.
The corresponding values for `CC1=C(Nc2cc(NS(=O)(=O)C3CCCCC3)ccc2Cl)CCCC1=O` [Example 05-67, N-(4-chloro-3-((2-methyl-3-oxocyclohex-1-en-1-yl)amino)phenyl)-cyclohexanesulfonamide] are 215 to 217 °C, below 1000 nM and below 1000 nM.
`CC1=C(Nc2ccc(NS(=O)(=O)C3CCCCC3)cc2Cl)CCCC1=O` [Example 05-69, N-(3-chloro-4-((2-methyl-3-oxocyclohex-1-en-1-yl)amino)phenyl)-cyclohexanesulfonamide] showed a melting point of 230 to 232 °C. Further, the IC50 in data set [1] was below 1000 nM. For the same compound, the 50% inhibitory concentration (IC50) on BRD4_2 fell in the range of 1000 to 10000 nM.
Taken in the same sequence, the figures for `CC1=C(Nc2cc(NCc3ccccc3C)ccc2Cl)CCCC1=O` [Example 05-72, 3-((2-chloro-5-((2-methylbenzyl)amino)phenyl)amino)-2-methylcyclohex-2-enone] were 158 to 160 °C, below 1000 nM and below 1000 nM.

(Values after patent US9884806B2, “Cyclic vinylogous amides as bromodomain inhibitors” (ICAHN SCHOOL OF MEDICINE AT MOUNT SINAI, priority 2013, dated 2018).)
